US9381281B2, “Drug eluting mesh to prevent infection of indwelling transdermal devices” (TYRX, INC., priority 2011, dated 2016)
≈ marks a conversion by molar mass, not a printed value.

What was measured:
[1] = system: myofibroblast formation; conditions: animal studies of capsular contracture with breast implants (Ajmal et al. 2003); cited from earlier work
[2] = system: Staphylococcus schleiferi ATCC 43808; test: Broth dilution MIC; type: cell-based; conditions: ATCC43808, read-out: Minimum Inhibitory Concentration
From the text: (§1) Establishing the MIC of antimicrobials is a necessary step in the process of establishing effective use concentrations. Approved standards for this activity with antibiotics are published by NCCLS. These standards are primarily intended for use in clinical settings with patient isolates. However, they represent a consensus methodology for best practice in determining MICs that are reproducible and defensible. The principles upon which they are based provide a sound framework for determining the MIC for the test.
(§2) The broth dilution method was used to measure quantitatively the in vitro activity of an antimicrobial agent against a given microbial isolate. To perform the test, a series of tubes were prepared with a broth to which various concentrations of the antimicrobial agent were added. The tubes were then inoculated with a standardized suspension of the test organism. After incubation the tubes were examined and the minimal inhibitory concentration (MIC) was determined.
(§3) The following organism were used: Acinetobacter baumanii A TCC 19606; Staphylococcus epidermidis A TCC 14990; Staphylococcus aureus ATCC 6538; Methicillin-resistant Staphylococcus aureus ATCC 33591; Escherichia coli ATCC 8739; Staphylococcus capitis ATCC 35661; or Staphylococcus schleiferi ATCC 43808.

[3] = system: Staphylococcus aureus ATCC 6538; test: Broth dilution MIC; type: cell-based; conditions: ATCC6538, S. aureus, read-out: Minimum Inhibitory Concentration
From the text: as §1, §2, §3

[4] = system: Staphylococcus epidermidis A TCC 14990; test: Broth dilution MIC; type: cell-based; conditions: ATCC14990, S. epidermidis, read-out: Minimum Inhibitory Concentration
From the text: as §1, §2, §3

[5] = system: Acinetobacter baumanii A TCC 19606; test: Broth dilution MIC; type: cell-based; conditions: Acinetobacter baumannii, ATCC19606, read-out: Minimum Inhibitory Concentration
From the text: as §1, §2, §3

[6] = system: Methicillin-resistant Staphylococcus aureus ATCC 33591; test: Broth dilution MIC; type: cell-based; conditions: ATCC 33591 / MRSA, read-out: Minimum Inhibitory Concentration
From the text: as §1, §2, §3

[7] = system: Staphylococcus capitis ATCC 35661; test: Broth dilution MIC; type: cell-based; conditions: ATCC35661, S. capitis, read-out: Minimum Inhibitory Concentration
From the text: as §1, §2, §3

[8] = system: Escherichia coli ATCC 8739; test: Broth dilution MIC; type: cell-based; conditions: ATCC8739, E. coli, read-out: Minimum Inhibitory Concentration
From the text: as §1, §2, §3

Row | Structure (SMILES) | myofibroblast formation [1] | MIC [2] | MIC [3] | MIC [4] | MIC [5] | MIC [6] | MIC [7] | MIC [8]
1 | O=S(=O)([O-])CCS.[Na+] [Mesna, sodium 2-mercaptoethane sulfonate] | diminish myofibroblast formation | – | – | – | – | – | – | –
2 | CN(C)c1ccc(O)c2c1C[C@H]1C[C@H]3[C@H](N(C)C)C(O)=C(C(N)=O)C(=O)[C@@]3(O)C(O)=C1C2=O [Minocycline] | – | 0.017 µg/mL (≈ 0.0372 µM) | 0.017 µg/mL (≈ 0.0372 µM) | 0.017 µg/mL (≈ 0.0372 µM) | 0.14 µg/mL (≈ 0.306 µM) | 2.23 µg/mL (≈ 4.88 µM) | 0.017 µg/mL (≈ 0.0372 µM) | 2.23 µg/mL (≈ 4.88 µM)
3 | CO[C@H]1/C=C/O[C@@]2(C)Oc3c(C)c(O)c4c(O)c(c(/C=N/N5CCN(C)CC5)c(O)c4c3C2=O)NC(=O)/C(C)=C\C=C\[C@H](C)[C@H](O)[C@@H](C)[C@@H](O)[C@@H](C)[C@H](OC(C)=O)[C@@H]1C [Rifampin] | – | 0.016 µg/mL (≈ 0.0194 µM) | 0.016 µg/mL (≈ 0.0194 µM) | 0.016 µg/mL (≈ 0.0194 µM) | 0.129 µg/mL (≈ 0.157 µM) | 2.06 µg/mL (≈ 2.5 µM) | 0.016 µg/mL (≈ 0.0194 µM) | 2.06 µg/mL (≈ 2.5 µM)
